The values that follow come from publication PMC6271513, “Design and Synthesis of Chalcone Derivatives as Inhibitors of the Ferredoxin — Ferredoxin-NADP^+ Reductase Interaction of Plasmodium falciparum: Pursuing New Antimalarial Agents” (Molecules, 2014).

The structures appear in SMILES notation.

The assay concerns the target T1, PfFd-PfFNR (Plasmodium falciparum, UniProt C6KT68+Q8IED5).
T1 construct: gene FNR; recombinant PfFNR (E. coli TG1 pTrc99A) and PfFd (E. coli JM105 pTrc99A), purified; PfFd 2Fe-2S, PfFNR flavoprotein
The experiment in a line: cytochrome c reduction at […] nm, FNR-Fd electron transfer. The format is biochemical.

T1 sequence (C6KT68 56-371): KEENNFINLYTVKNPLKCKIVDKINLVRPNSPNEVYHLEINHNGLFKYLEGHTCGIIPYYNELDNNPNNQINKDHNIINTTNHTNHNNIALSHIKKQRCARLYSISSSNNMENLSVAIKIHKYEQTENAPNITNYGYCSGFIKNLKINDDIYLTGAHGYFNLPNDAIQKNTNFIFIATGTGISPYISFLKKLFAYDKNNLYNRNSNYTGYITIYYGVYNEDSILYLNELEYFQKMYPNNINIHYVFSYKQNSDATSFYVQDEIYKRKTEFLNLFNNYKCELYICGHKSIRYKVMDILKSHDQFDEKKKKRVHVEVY
T1 sequence (Q8IED5 97-194 limits assumed): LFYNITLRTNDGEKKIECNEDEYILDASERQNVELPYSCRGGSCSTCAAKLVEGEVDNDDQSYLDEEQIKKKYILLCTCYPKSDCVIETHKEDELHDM

Turning to `COc1ccccc1/C=C/C(=O)c1ccc(N)cc1` [compound 1, (E)-1-(4-Aminophenyl)-3-(2-methoxyphenyl)prop-2-en-1-one], the inhibition at 100 µM is 15.8%.

As to `COc1cccc(/C=C/C(=O)c2ccc(N)cc2)c1` [compound 2, (E)-1-(4-Aminophenyl)-3-(3-methoxyphenyl)prop-2-en-1-one], the inhibition at 100 µM came out at 22.4%.

Consider `COc1cccc(/C=C/C(=O)c2ccc(N)cc2)c1OC` [compound 4, (E)-1-(4-Aminophenyl)-3-(2,3-dimethoxyphenyl)prop-2-en-1-one], for which the inhibition at 100 µM stood at 31.6%.

Regarding `COc1ccc(/C=C/C(=O)c2ccc(N)cc2)c(OC)c1` [compound 5, (E)-1-(4-Aminophenyl)-3-(2,4-dimethoxyphenyl)prop-2-en-1-one], the inhibition at 100 µM worked out at 38.2%.

For `COc1ccc(OC)c(/C=C/C(=O)c2ccc(N)cc2)c1` [compound 6, (E)-1-(4-Aminophenyl)-3-(2,5-dimethoxyphenyl)prop-2-en-1-one], the inhibition at 100 µM was -14.1%.

For `Nc1ccc(C(=O)/C=C/c2ccccc2)cc1` [compound 7, (E)-1-(4-Aminophenyl)-3-phenylprop-2-en-1-one], the inhibition at 100 µM came to 10.9%.

For `COc1ccccc1/C=C/C(=O)c1ccccc1` [compound 8, (E)-3-(2-Methoxyphenyl)-1-phenylprop-2-en-1-one], the inhibition at 100 µM is -10.3%.

`COc1cccc(/C=C/C(=O)c2ccccc2)c1` [compound 9, (E)-3-(3-Methoxyphenyl)-1-phenylprop-2-en-1-one]: the inhibition at 100 µM came to 0%.

`COc1ccc(/C=C/C(=O)c2ccccc2)cc1` [compound 10, (E)-3-(4-Methoxyphenyl)-1-phenylprop-2-en-1-one]: the inhibition at 100 µM is 4.69%.

On to `COc1cccc(/C=C/C(=O)c2ccccc2)c1OC` [compound 11, (E)-3-(2,3-Dimethoxyphenyl)-1-phenylprop-2-en-1-one], for which the inhibition at 100 µM was -5.88%.

As to `COc1ccc(/C=C/C(=O)c2ccccc2)c(OC)c1` [compound 12, (E)-3-(2,4-Dimethoxyphenyl)-1-phenylprop-2-en-1-one], the inhibition at 100 µM is 6.25%.

For the compound `COc1ccc(OC)c(/C=C/C(=O)c2ccccc2)c1` [compound 13, (E)-3-(2,5-Dimethoxyphenyl)-1-phenylprop-2-en-1-one], the inhibition at 100 µM turned out to be 5.88%.

With `COc1ccc(/C=C/C(=O)c2ccc(Br)cc2)cc1` [compound 14, (E)-1-(4-Bromophenyl)-3-(4-methoxyphenyl)prop-2-en-1-one], the inhibition at 100 µM came out at 7.35%.

For `COc1ccc(/C=C/C(=O)c2ccc(Br)cc2)c(OC)c1` [compound 15, (E)-1-(4-Bromophenyl)-3-(2,4-dimethoxyphenyl)prop-2-en-1-one], the inhibition at 100 µM amounted to 26.5%.

For the compound `COc1ccc(OC)c(/C=C/C(=O)c2ccc(Br)cc2)c1` [compound 16, (E)-1-(4-Bromophenyl)-3-(2,5-dimethoxyphenyl)prop-2-en-1-one], the inhibition at 100 µM was determined as 11.8%.

`O=C(/C=C/c1ccccc1)c1ccccc1` [compound 17, (E)-1,3-diphenyl-2-propen-1-one]: the inhibition at 100 µM amounted to 22.1%.

By inhibition is commonly meant the relative decrease from the control value, in per cent.
